Results reported in US20250312352A1, “GLP-1R MODULATING COMPOUNDS” (Gilead Sciences, Inc., priority 2021, published 2025).

target: T1, GLP-1R (Homo sapiens, UniProt P43220); experiment: GLP-1R activation cAMP assay (Assay 1 or Assay 2); format: cell-based; details: cAMP increase in CHO cells stably expressing GLP-1R; compounds run on one of the two cAMP assays
T1 construct: host or cells: CHO cells
Protocol: GLP-1R ACTIVATION—cAMP Assay 1
GLP-1R activation by compounds of the present disclosure was quantified by measuring cAMP increase in CHO cells stably expressing GLP-1R (MultiSpan product #C1267-1a). The cells were harvested and plated in growth medium (DMEM/F-12 (Corning product #10-090-CV) supplemented with 10% FBS (HyClone product #SH30071-03), penicillin/streptomycin (Corning product #30-002CI) and 10 μg/ml puromycin (Gibco product #A11138-03)) at 1,000 cells/well in a 384-well plate (Greiner product #781080). The cells were then incubated overnight at 37° C., 5% CO2. The next day, the medium was removed and the cells were washed with DPBS (Corning product #21-031-CM) before adding the assay medium (HBSS, Corning product #21-023-CV) with 20 mM Hepes (Gibco product #15630-080) and 0.1% BSA (Rockland Immunochemicals product #BSA-1000)). Following the medium change, the cells were incubated for 1 hour at 37° C., 5% CO2. The tested GLP-1 compound was added to the cells in a 10-point dose response followed by a 30-minute incubation at 37° C., 5% CO2. cAMP concentration increase was then detected using Cisbio's cAMP Gs Dynamic Kit (product #62AM4PEC) according to the manufacturer's protocol. The response was plotted against the log of the agonist concentration and fitted to a sigmoidal equation to determine the EC50.
GLP-1R ACTIVATION—cAMP Assay 2
GLP-1R activation by small molecule agonists was quantified by measuring cAMP increase in CHO cells stably expressing GLP-1R (MultiSpan product #C1267-1a). 50 nL of agonists were pre-spotted in a 10-point dose response onto 384-well plate (Corning product #CL3826) using the Labcyte Echo System.

T1 sequence (P43220 24-463): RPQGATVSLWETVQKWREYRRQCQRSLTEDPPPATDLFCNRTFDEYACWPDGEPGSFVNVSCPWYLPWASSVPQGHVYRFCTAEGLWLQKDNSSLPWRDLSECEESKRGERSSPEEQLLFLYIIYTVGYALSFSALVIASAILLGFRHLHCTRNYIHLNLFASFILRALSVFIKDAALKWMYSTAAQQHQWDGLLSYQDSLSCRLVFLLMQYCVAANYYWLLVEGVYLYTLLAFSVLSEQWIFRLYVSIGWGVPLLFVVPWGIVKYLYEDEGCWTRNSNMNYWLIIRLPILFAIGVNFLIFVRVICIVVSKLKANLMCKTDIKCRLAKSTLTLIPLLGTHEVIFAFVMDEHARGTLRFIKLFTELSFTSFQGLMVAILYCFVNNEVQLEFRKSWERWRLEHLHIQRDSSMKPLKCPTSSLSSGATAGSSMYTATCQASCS

Compound	EC50
O=C(O)c1ccc2nc(Cc3cc(F)c(-c4cccc(OCc5ncc(OCC(F)F)s5)n4)cc3F)n(C[C@@H]3CCO3)c2c1 [Example 56, (S)-2-(4-(6-((5-(2,2-difluoroethoxy)thiazol-2-yl)methoxy)pyridin-2-yl)-2,5-difluorobenzyl)-1-(oxetan-2-ylmethyl)-1H-benzo[d]imidazole-6-carboxylic acid]	7190 pM
O=C(O)c1ccc2nc(Cc3cc(F)c(-c4cccc(OCc5nc(C(F)(F)F)cs5)n4)cc3F)n(C[C@@H]3CCO3)c2c1 [Example 53, (S)-2-(2,5-difluoro-4-(6-((4-(trifluoromethyl)thiazol-2-yl)methoxy)pyridin-2-yl)benzyl)-1-(oxetan-2-ylmethyl)-1H-benzo[d]imidazole-6-carboxylic acid]	380 pM
Cc1ncc(COc2cccc(-c3cc(F)c(Cc4nc5ccc(C(=O)O)cc5n4C[C@@H]4CCO4)cc3F)n2)n1C [Example 179, (S)-2-(4-(6-((1,2-dimethyl-1H-imidazol-5-yl)methoxy)pyridin-2-yl)-2,5-difluorobenzyl)-1-(oxetan-2-ylmethyl)-1H-benzo[d]imidazole-6-carboxylic acid]	4590 pM
O=C(O)c1ccc2nc(Cc3cc(F)c(-c4cccc(OCc5nccn5C(F)F)n4)cc3F)n(C[C@@H]3CCO3)c2c1 [Example 19, (S)-2-(4-(6-((1-(difluoromethyl)-1H-imidazol-2-yl)methoxy)pyridin-2-yl)-2,5-difluorobenzyl)-1-(oxetan-2-ylmethyl)-1H-benzo[d]imidazole-6-carboxylic acid]	23200 pM
2-(4-(6-((5-chlorothiazol-2-yl)methoxy)pyridin-2-yl)-2,5-difluorobenzyl)-1-((1-(fluoromethyl)cyclopropyl)methyl)-1H-benzo[d]imidazole-6-carboxylic acid [Example 269]	748 pM
O=C(O)c1cc(F)c2nc(Cc3ccc(-c4cccc(OCc5cc6n(n5)CCC6)n4)c(F)c3)n(C[C@@H]3CCO3)c2c1 [Example 69, (S)-2-(4-(6-((5,6-dihydro-4H-pyrrolo[1,2-b]pyrazol-2-yl)methoxy)pyridin-2-yl)-3-fluorobenzyl)-4-fluoro-1-(oxetan-2-ylmethyl)-1H-benzo[d]imidazole-6-carboxylic acid]	2590 pM
O=C(O)c1ccc2nc(Cc3cc(F)c(-c4cccc(OCc5ncc(-c6cnn(CC7CC7)c6)s5)n4)cc3F)n(C[C@@H]3CCO3)c2c1 [Example 88, (S)-2-(4-(6-((5-(1-(cyclopropylmethyl)-1H-pyrazol-4-yl)thiazol-2-yl)methoxy)pyridin-2-yl)-2,5-difluorobenzyl)-1-(oxetan-2-ylmethyl)-1H-benzo[d]imidazole-6-carboxylic acid]	440 pM
N#CC1(NC(=O)c2ccc(COc3cccc(-c4cc(F)c(Cc5nc6ccc(C(=O)O)cc6n5C[C@@H]5CCO5)cc4F)n3)cn2)CC1 [Example 183, (S)-2-(4-(6-((6-((1-cyanocyclopropyl)carbamoyl)pyridin-3-yl)methoxy)pyridin-2-yl)-2,5-difluorobenzyl)-1-(oxetan-2-ylmethyl)-1H-benzo[d]imidazole-6-carboxylic acid]	260 pM
Cn1cc(C#Cc2cnc(COc3cccc(-c4cc(F)c(Cc5nc6ccc(C(=O)O)cc6n5C[C@@H]5CCO5)cc4F)n3)c(F)c2)cn1 [Example 143, (S)-2-(2,5-difluoro-4-(6-((3-fluoro-5-((1-methyl-1H-pyrazol-4-yl)ethynyl)pyridin-2-yl)methoxy)pyridin-2-yl)benzyl)-1-(oxetan-2-ylmethyl)-1H-benzo[d]imidazole-6-carboxylic acid]	140 pM
O=C(O)c1ccc2nc(Cc3cc(F)c(-c4cccc(OCc5ccc(C(F)(F)F)o5)n4)cc3F)n(C[C@@H]3CCO3)c2c1 [Example 61, (S)-2-(2,5-difluoro-4-(6-((5-(trifluoromethyl)furan-2-yl)methoxy)pyridin-2-yl)benzyl)-1-(oxetan-2-ylmethyl)-1H-benzo[d]imidazole-6-carboxylic acid]	960 pM

The remaining lines, values ahead:

EC50	Compound
185 pM	O=C(O)c1ccc2nc(Cc3cc(F)c(-c4cccc(OCc5ccc(C#Cc6cnn(C(F)F)c6)cc5F)n4)cc3F)n(C[C@@H]3CCO3)c2c1 [Example 287, (S)-2-(4-(6-((4-((1-(difluoromethyl)-1H-pyrazol-4-yl)ethynyl)-2-fluorobenzyl)oxy)pyridin-2-yl)-2,5-difluorobenzyl)-1-(oxetan-2-ylmethyl)-1H-benzo[d]imidazole-6-carboxylic acid]
94 pM	O=C(O)c1cc(F)c2nc(Cc3cc(F)c(-c4cccc(OCc5ccc(Cl)s5)n4)cc3F)n(C[C@@H]3CCO3)c2c1 [Example 314, (S)-2-(4-(6-((5-chlorothiophen-2-yl)methoxy)pyridin-2-yl)-2,5-difluorobenzyl)-4-fluoro-1-(oxetan-2-ylmethyl)-1H-benzo[d]imidazole-6-carboxylic acid]
590 pM	O=C(O)c1ccc2nc(Cc3cc(F)c(-c4cccc(OCc5nnc(C6CC6)s5)n4)cc3F)n(C[C@@H]3CCO3)c2c1 [Example 307, (S)-2-(4-(6-((5-cyclopropyl-1,3,4-thiadiazol-2-yl)methoxy)pyridin-2-yl)-2,5-difluorobenzyl)-1-(oxetan-2-ylmethyl)-1H-benzo[d]imidazole-6-carboxylic acid]
955 pM	Cn1nncc1C#Cc1ccc(COc2cccc(-c3cc(F)c(Cc4nc5ccc(C(=O)O)cc5n4C4COCC4(C)C)cc3F)n2)c(F)c1 (stereo not drawn) [Example 279, 2-(2,5-difluoro-4-(6-((2-fluoro-4-((1-methyl-1H-1,2,3-triazol-5-yl)ethynyl)benzyl)oxy)pyridin-2-yl)benzyl)-1-(4,4-dimethyltetrahydrofuran-3-yl)-1H-benzo[d]imidazole-6-carboxylic acid]
695 pM	C[C@H]1COC[C@H]1n1c(Cc2cc(F)c(-c3ccc(F)c(OCc4ncc(C(F)(F)F)s4)n3)cc2F)nc2ccc(C(=O)O)cc21 [Example 409, 2-(2,5-difluoro-4-(5-fluoro-6-((5-(trifluoromethyl)thiazol-2-yl)methoxy)pyridin-2-yl)benzyl)-1-((3S,4R)-4-methyltetrahydrofuran-3-yl)-1H-benzo[d]imidazole-6-carboxylic acid]
712 pM	COc1nnc(COc2nc(-c3cc(F)c(Cc4nc5ccc(C(=O)O)cc5n4CC4(CF)CC4)c(F)c3F)ccc2F)s1 [Example 368, 1-((1-(fluoromethyl)cyclopropyl)methyl)-2-(2,3,6-trifluoro-4-(5-fluoro-6-((5-methoxy-1,3,4-thiadiazol-2-yl)methoxy)pyridin-2-yl)benzyl)-1H-benzo[d]imidazole-6-carboxylic acid]
10 pM	CNC(=O)c1cc(Cl)c(COc2cccc(-c3ccc(Cc4nc5ccc(C(=O)O)cc5n4[C@@H]4COCC4(C)C)c(F)c3)n2)cn1 [Example 399, (S)-2-(4-(6-((4-chloro-6-(methylcarbamoyl)pyridin-3-yl)methoxy)pyridin-2-yl)-2-fluorobenzyl)-1-(4,4-dimethyltetrahydrofuran-3-yl)-1H-benzo[d]imidazole-6-carboxylic acid]
96 pM	O=C(O)c1ccc2nc(Cc3cc(F)c(-c4cccc(OCc5ccc(C#Cc6cnc(Cl)nc6)cc5)n4)cc3F)n(C[C@@H]3CCO3)c2c1 [Example 403, (S)-2-(4-(6-((4-((2-chloropyrimidin-5-yl)ethynyl)benzyl)oxy)pyridin-2-yl)-2,5-difluorobenzyl)-1-(oxetan-2-ylmethyl)-1H-benzo[d]imidazole-6-carboxylic acid]
401 pM	CC1(C)COC[C@H]1n1c(Cc2cc(F)c(-c3ccnc(OCc4sc(C#N)cc4F)n3)cc2F)nc2ccc(C(=O)O)cc21 [Example 267, 2-[[4-[2-[(5-cyano-3-fluoro-2-thienyl)methoxy]pyrimidin-4-yl]-2,5-difluoro-phenyl]methyl]-3-[(3S)-4,4-dimethyltetrahydrofuran-3-yl]benzimidazole-5-carboxylic acid]
800 pM	O=C(O)c1ccc2nc(Cc3cc(F)c(-c4cccc(OCc5ccc(-c6cn(C7CCOCC7)nn6)cc5F)n4)cc3F)n(C[C@@H]3CCO3)c2c1 [Example 218, (S)-2-(2,5-difluoro-4-(6-((2-fluoro-4-(1-(tetrahydro-2H-pyran-4-yl)-1H-1,2,3-triazol-4-yl)benzyl)oxy)pyridin-2-yl)benzyl)-1-(oxetan-2-ylmethyl)-1H-benzo[d]imidazole-6-carboxylic acid]
669 pM	COc1nnc(COc2cccc(-c3cc(Cl)c(Cc4nc5ccc(C(=O)O)cc5n4[C@@H]4COCC4(C)C)cc3C)n2)s1 [Example 442, (S)-2-(2-chloro-4-(6-((5-methoxy-1,3,4-thiadiazol-2-yl)methoxy)pyridin-2-yl)-5-methylbenzyl)-1-(4,4-dimethyltetrahydrofuran-3-yl)-1H-benzo[d]imidazole-6-carboxylic acid]
